In US5965088A, “Method for providing rapid disinfection of contact lenses” (priority 1997, dated 1999):
Read-outs that look alike come from different tables or passages of the source.

Tests used:
[1] = test system: Pseudomonas aeruginosa, Staphylococcus aureus, Serratia marcescens, Candida albicans, Fusarium solani; test: Stand-Alone Procedure, secondary performance criteria (entrance into the regimen test); type: cell-based, bacteria, yeast and mold; conditions: for 10 minute entrance into the regimen: 10 min; for secondary performance criteria: 4.0 ppm, Example 12
Description: This Example illustrates the microbiocidal efficacy of solutions according to the present invention. The antimicrobial efficacy of each of various compositions for the chemical disinfection of contact lenses was evaluated. Microbial challenge inoculums were prepared using Pseudomonas aeruginosa (ATCC 9027), Staphylococcus aureus (ATCC 6538), Serratia marcescens (ATCC 13880), Candida albicans (ATCC 10231), and Fusarium solani (ATCC 36031). The test organisms were cultured on appropriate agar and the cultures were harvested using sterile DPBST (Dulbecco's Phosphate Buffered Saline plus 0.05% w/v polysorbate 80) or a suitable diluent and transferred to a suitable vessel. Spore suspensions were filtered through sterile glass wool to remove hyphal fragments. Serratia marcescens, as appropriate, was filtered (eg., through a 1.2 μ filter) to clarify the suspension. After harvesting, the suspension was centrifuged at no more than 5000× g for a maximum of 30 minutes at 20-25° C. The supernatant was poured off and resuspended in DPBST or other suitable diluent. The suspension was centrifuged a second time, and resuspended in DPBST or other suitable diluent. All challenge bacterial and fungal cell suspensions were adjusted with DPBST or other suitable diluent to 1×10^7 -10^8 cfu/mL. The appropriate cell concentration may be estimated by measuring the turbidity of the suspension, for example using a spectrophotometer at a preselected wavelength, for example 490 nm. One tube was prepared containing a minimum of 10 mL of test solution per challenge organism. Each tube of the solution to be tested was inoculated with a suspension of the test organism sufficient to provide a final count of 1.0×10^5 -10^6 cfu/mL, the volume of the inoculum not exceeding 1% of the sample volume. Dispersion of the inoculum was ensured by vortexing the sample for at least 15 seconds. The inoculated product was stored at 10-25° C. Aliquots in the amount of 1.0 mL were taken of the inoculated product for determination of viable counts after certain time periods of disinfection. […] The viable count of organisms was determined in appropriate dilutions by preparation of triplicate plates of trypticase soy (TSA) agar for bacteria and Sabouraud dextrose agar (SDA) for mold and yeast. […] The average number of colony forming units was determined on countable plates. […] The microbial reduction was then calculated at the specified time points. […]
(§1) The solutions were evaluated based on the performance requirement referred to as the "Stand-Alone Procedure for Disinfecting Products" (hereafter the "stand-alone test") and is based on the Disinfection Efficacy Testing for contact lens care products under the Draft Premarket Notification (510(k)) Guidance Document For Contact Lens Care Products dated Apr. […]

[2] = test system: Pseudomonas aeruginosa, Staphylococcus aureus, Serratia marcescens, Candida albicans, Fusarium solani; test: Stand-Alone Procedure for Disinfecting Products, primary performance criteria; type: cell-based, bacteria, yeast and mold; conditions: for one hour stand-alone test for bacteria: 1 hr, bacteria only
Description: (§2) This Example illustrates the microbiocidal efficacy of solutions according to the present invention. The antimicrobial efficacy of each of various compositions for the chemical disinfection of contact lenses was evaluated. Microbial challenge inoculums were prepared using Pseudomonas aeruginosa (ATCC 9027), Staphylococcus aureus (ATCC 6538), Serratia marcescens (ATCC 13880), Candida albicans (ATCC 10231), and Fusarium solani (ATCC 36031). The test organisms were cultured on appropriate agar and the cultures were harvested using sterile DPBST (Dulbecco's Phosphate Buffered Saline plus 0.05% w/v polysorbate 80) or a suitable diluent and transferred to a suitable vessel. Spore suspensions were filtered through sterile glass wool to remove hyphal fragments. Serratia marcescens, as appropriate, was filtered (eg., through a 1.2 μ filter) to clarify the suspension. After harvesting, the suspension was centrifuged at no more than 5000× g for a maximum of 30 minutes at 20-25° C. The supernatant was poured off and resuspended in DPBST or other suitable diluent. The suspension was centrifuged a second time, and resuspended in DPBST or other suitable diluent. All challenge bacterial and fungal cell suspensions were adjusted with DPBST or other suitable diluent to 1×10^7 -10^8 cfu/mL. The appropriate cell concentration may be estimated by measuring the turbidity of the suspension, for example using a spectrophotometer at a preselected wavelength, for example 490 nm. One tube was prepared containing a minimum of 10 mL of test solution per challenge organism. Each tube of the solution to be tested was inoculated with a suspension of the test organism sufficient to provide a final count of 1.0×10^5 -10^6 cfu/mL, the volume of the inoculum not exceeding 1% of the sample volume. Dispersion of the inoculum was ensured by vortexing the sample for at least 15 seconds. The inoculated product was stored at 10-25° C. Aliquots in the amount of 1.0 mL were taken of the inoculated product for determination of viable counts after certain time periods of disinfection. The time points for the bacteria were 25, 50, 75, and 100% of the minimum disinfection time. Yeast and mold were tested at an additional timepoint of at least 400% of the minimum disinfection time. The suspension was mixed well by vortexing vigorously for at least 5 second. The 1.0 mL aliquots removed at the specified time intervals were subjected to a suitable series of decimal dilutions in validated neutralizing media. The suspensions were mixed vigorously and incubated for a suitable period of time to allow for neutralization of the microbial agent. The viable count of organisms was determined in appropriate dilutions by preparation of triplicate plates of trypticase soy (TSA) agar for bacteria and Sabouraud dextrose agar (SDA) for mold and yeast. The bacterial recovery plates were incubated at 30-35° C. for 2-4 days. The yeast was incubated at 20-30° C. for 2-4 days and mold recovery plates at 20-25° C. for 3-7 days. The average number of colony forming units was determined on countable plates. Countable plates refer to 30-300 cfu/plates for bacteria and yeast, and 8 to 80 cfu/plate for mold except when colonies are observed only for the 10^0 or 10^-1 dilution plates. The microbial reduction was then calculated at the specified time points. […] Following inoculation in a validated neutralizing broth and incubation for an appropriate period of time, the inoculum control must be between 1.0×10^5 -1.0×10^6 cfu/mL
as §1, with “Apr. 1, 1996, prepared by the U.S. Food and Drug Administration, Division of Ophthalmic Devices.” for “Apr.”

[3] = test system: Staphylococcus aureus (ATCC 6538); test: Antimicrobial efficacy (stand-alone log reduction), S. aureus; type: cell-based; conditions: for log reduction at 4 ppm / log reduction at 1 ppm / log reduction at 2 ppm / log reduction at 3 ppm / log reduction at 5 ppm / log reduction at 4 µg/mL: Staphylococcus aureus; for log reduction at 4 µg/mL: 4.0 ppm alexidine in ReNu MPS
Description: as §2
as §1, with “Apr. 1, 1996, prepared by the U.S. Food and Drug Administration, Division of Ophthalmic Devices.” for “Apr.”

## CCCCC(CC)CNC(=N)NC(=N)NCCCCCCNC(=N)NC(=N)NCC(CC)CCCC.Cl.Cl (stereo not drawn) [Alexidine.2HCl, 1,1 '-hexamethylenebis(5-(2-ethylhexyl)-biguanide) dihydrochloride]
[1]; 1.0 ppm
  10 minute entrance into the regimen: does not pass the 10 minute entrance into the regimen
[1]; 2.0 ppm
  10 minute entrance into the regimen: passes the 10 minute entrance into the regimen
[1]; soak 2.5 min
  secondary performance criteria: failed in all cases
[1]; soak 10 min
  secondary performance criteria: met in all cases
[2]; 1.0 ppm
  one hour stand-alone test for bacteria: will not pass the one hour stand-alone test for bacteria
[2]; 2.0 ppm
  one hour stand-alone test for bacteria: passes the one hour stand-alone test for bacteria
[2]; 4.0 ppm alexidine in ReNu MPS
  one hour stand-alone test: passed the one hour stand-alone test
[2]; 4.0 ppm, Example 6, 30, 45, 60 min, no rub or rinse
  stand-alone test: able to pass a stand-alone test (with no rub or rinse) at the 30 minute time point, 45 time point and the 60 minute time point
[2]; 4.0 ppm, Example 7, 30, 45, 60 min
  stand-alone test: passed the stand alone test at 30 minutes, 45 minutes, and 60 minutes
[2]; 4.0 ppm, Example 7, 15 min, with respect to Serratia marcescens and Candida albicans
  stand-alone test: only just passed the 15 minute stand-alone test
[2]; 4.0 ppm, Example 8, 30, 45, 60 min, without rubbing
  stand-alone test: passed the stand-alone test (without rubbing) at 30 minutes, 45 minutes, and 60 minutes
[2]; 4.0 ppm, Example 8, 15 min, without rubbing
  stand-alone test: did not pass the test at 15 minutes
[2]; 4.0 ppm, Tables 3, 4 and 5
  time required to pass a stand-alone procedure without rubbing: at least 30 minutes
[3]; 4.0 ppm, Example 6, 15 min
  stand-alone test, 15 minute time point: the 15 minute time point failed
[3]; ATCC6538, 2.5 min
  log reduction at 4 ppm: 2
[3]; ATCC6538, 2.5 min, 4.0 ppm, aged 18 months, Exp. 1, 2.5 min, read-out: Log Reduction
  log reduction at 4 ppm: 2.2
[3]; ATCC6538, 2.5 min, 4.0 ppm, aged 18 months, Exp. 2, 2.5 min, read-out: Log Reduction
  log reduction at 4 ppm: 1.6
[3]; ATCC6538, 5 min, 1.0 ppm, read-out: Log Reduction at 5 Minutes
  log reduction at 1 ppm: 0.7
[3]; ATCC6538, 5 min, 2.0 ppm, read-out: Log Reduction at 5 Minutes
  log reduction at 2 ppm: 1.6
[3]; ATCC6538, 5 min, 3.0 ppm, read-out: Log Reduction at 5 Minutes
  log reduction at 3 ppm: 2.6
[3]; ATCC6538, 5 min, 4.0 ppm, aged 18 months, Exp. 1, 5.0 min, read-out: Log Reduction
  log reduction at 4 ppm: 2.7
[3]; ATCC6538, 5 min, 4.0 ppm, aged 18 months, Exp. 2, 5.0 min, read-out: Log Reduction
  log reduction at 4 ppm: 2
[3]; ATCC6538, 5 min, 4.0 ppm, aged 18 months, Exp. 3, 5.0 min, read-out: Log Reduction
  log reduction at 4 ppm: 2.8
[3]; ATCC6538, 5 min, 4.0 ppm, read-out: Log Reduction at 5 Minutes
  log reduction at 4 ppm: 4.8
[3]; ATCC6538, 5 min, 5.0 ppm, read-out: Log Reduction at 5 Minutes
  log reduction at 5 ppm: 4.8
[3]; ATCC6538, 0.125 h
  log reduction at 4 ppm: 2.3
[3]; ATCC6538, 0.125 h, 4.0 ppm, aged 18 months, Exp. 1, 7.5 min, read-out: Log Reduction
  log reduction at 4 ppm: 3.1
[3]; ATCC6538, 0.125 h, 4.0 ppm, aged 18 months, Exp. 3, 7.5 min, read-out: Log Reduction
  log reduction at 4 ppm: 3.4
[3]; ATCC6538, 10 min, 1.0 ppm, read-out: Log Reduction at 10 Minutes
  log reduction at 1 ppm: 1
[3]; ATCC6538, 10 min, 2.0 ppm, read-out: Log Reduction at 10 Minutes
  log reduction at 2 ppm: 2.6
[3]; ATCC6538, 10 min, 3.0 ppm, read-out: Log Reduction at 10 Minutes
  log reduction at 3 ppm: 4
[3]; ATCC6538, 10 min, 4.0 ppm, aged 18 months, Exp. 1, 10.0 min, read-out: Log Reduction
  log reduction at 4 ppm: 3.5
[3]; ATCC6538, 10 min, 4.0 ppm, aged 18 months, Exp. 2, 10.0 min, read-out: Log Reduction
  log reduction at 4 ppm: 2.7
[3]; ATCC6538, 10 min, 4.0 ppm, aged 18 months, Exp. 3, 10.0 min, read-out: Log Reduction
  log reduction at 4 ppm: 3.9
[3]; ATCC6538, 10 min, 4.0 ppm, read-out: Log Reduction at 10 Minutes
  log reduction at 4 ppm: 4.8
[3]; ATCC6538, 10 min, 5.0 ppm, read-out: Log Reduction at 10 Minutes
  log reduction at 5 ppm: > 4.8
[3]; ATCC6538, 0.25 h, 4.0 ppm, Ex. 6, aged 19 months at 25 °C, 15 min, read-out: Log Reduction
  log reduction at 4 ppm: 2.5
[3]; ATCC6538, 0.25 h, 4.0 ppm, Ex. 7, different lot aged 18 months, 15 min, read-out: Log Reduction
  log reduction at 4 ppm: 3.7
[3]; ATCC6538, 0.25 h, 4.0 ppm, Ex. 8, different batch aged 19 months at 25 °C, 15 min, read-out: Log Reduction
  log reduction at 4 ppm: 3.5
[3]; ATCC6538, 0.5 h, 4.0 ppm, Ex. 6, aged 19 months at 25 °C, 30 min, read-out: Log Reduction
  log reduction at 4 ppm: 4.4
[3]; ATCC6538, 0.5 h, 4.0 ppm, Ex. 7, different lot aged 18 months, 30 min, read-out: Log Reduction
  log reduction at 4 ppm: 4.7
[3]; ATCC6538, 0.5 h, 4.0 ppm, Ex. 8, different batch aged 19 months at 25 °C, 30 min, read-out: Log Reduction
  log reduction at 4 ppm: > 4.9
[3]; ATCC6538, 0.75 h, 4.0 ppm, Ex. 6, aged 19 months at 25 °C, 45 min, read-out: Log Reduction
  log reduction at 4 ppm: > 4.9
[3]; ATCC6538, 0.75 h, 4.0 ppm, Ex. 7, different lot aged 18 months, 45 min, read-out: Log Reduction
  log reduction at 4 ppm: > 4.8
[3]; ATCC6538, 0.75 h, 4.0 ppm, Ex. 8, different batch aged 19 months at 25 °C, 45 min, read-out: Log Reduction
  log reduction at 4 ppm: > 4.9
[3]; ATCC6538, 1 h, 1 ppm, 1 hr, read-out: Log Reduction
  log reduction at 1 ppm: 1.6
[3]; ATCC6538, 1 h, 2 ppm, 1 hr, read-out: Log Reduction
  log reduction at 2 ppm: 4.3
[3]; ATCC6538, 1 h, 3 ppm, 1 hr, read-out: Log Reduction
  log reduction at 3 ppm: > 4.8
[3]; ATCC6538, 1 h, 1 hr
  log reduction at 4 µg/mL: > 4.9
[3]; ATCC6538, 1 h, 4 ppm, 1 hr, read-out: Log Reduction
  log reduction at 4 ppm: > 4.8
[3]; ATCC6538, 1 h, 4.0 ppm, Ex. 6, aged 19 months at 25 °C, 60 min, read-out: Log Reduction
  log reduction at 4 ppm: > 4.9
[3]; ATCC6538, 1 h, 4.0 ppm, Ex. 7, different lot aged 18 months, 60 min, read-out: Log Reduction
  log reduction at 4 ppm: > 4.8
[3]; ATCC6538, 1 h, 4.0 ppm, Ex. 8, different batch aged 19 months at 25 °C, 60 min, read-out: Log Reduction
  log reduction at 4 ppm: > 4.9
[3]; ATCC6538, 1 h, 5 ppm, 1 hr, read-out: Log Reduction
  log reduction at 5 ppm: > 4.8
[3]; ATCC6538, 2 h, 2 hr
  log reduction at 4 µg/mL: > 4.9
[3]; ATCC6538, 3 h, 3 hr
  log reduction at 4 µg/mL: > 4.9
[3]; ATCC6538, 4 h, 4 hr
  log reduction at 4 µg/mL: > 4.9
